From US10159659B2, “Predicting response to cancer therapy” (BIONOMICS LIMITED, priority 2014, dated 2018)

What was measured:
tubulin = experiment: Tubulin polymerisation inhibition; type: biochemical
[1] = test system: tumour endothelial cells (activated) and normal endothelial cells (quiescent); experiment: Potency against activated versus quiescent endothelial cells; type: cell-based
[2] = test system: Metastatic Clear Cell Renal Cell Carcinoma; experiment: Disruptor-1 trial: BNC105P in combination with everolimus, progression free survival; type: in vivo, human; details: all patients; 10 mg oral everolimus daily, with or without 16 mg/m^2 BNC105P i.v. on days 1 and 8 of 21 day cycle; FIG. 2
Description: A control group of patients received everolimus alone.
The medical histories of patients were obtained prior to commencement of the study.
All patients in the study were followed for disease progression and survival. Prior to commencing treatment, patients enrolled in the study were subject to disease assessment including: CT of chest, abdomen and pelvis; CT of the head or brain MRI; bone scan; echocardiography (ECHO) or multiple gated acquisition scan (MUGA). At every 3 cycles of treatment, CT scans of chest, abdomen and pelvis, and bone scans were performed to determine disease progression.
Time to disease progression was determined as a measurement from the start of the treatment until the criteria for disease progression is met (or death occurs), taking as reference the smallest measurements recorded since the treatment started. […]

[3] = Maximum tolerated dose of BNC105P by intravenous infusion in patients; type: in vivo, human; details: intravenous infusion over 10 minutes, days 1 and 8 of 21 day cycle, with 10 mg oral everolimus daily
Protocol: Patients in the BNC105P in combination with everolimus study group (the “combination arm”) were administered 10 mg oral everolimus daily. On days 1 and 8 of the 21 day cycle period, the patients were administered 16 mg/m^2 BNC105P, which had been determined to be the maximum tolerated dose, by intravenous infusion over a 10 minute period (FIG. 1). Treatment was continued until disease progressed, intolerable toxicity became apparent, or until consent was withdrawn. A control group of patients were administered with everolimus alone.

Q: Which results are given for `COc1cc(C(=O)c2c(C)oc3c(O)c(OC)ccc23)cc(OC)c1OC` [formula III, 2-methyl-7-hydroxy-3-(3,4,5-trimethoxybenzoyl)-6-methoxybenzofuran]?
A: tubulin polymerisation inhibition (in words) (tubulin): potent tubulin polymerisation inhibitors; selectivity between activated (tumour) and quiescent (normal) endothelial cells (in words) [1]: show selectivity towards tumor endothelial cells (activated) over normal endothelial cells (quiescent)

Q: Which “selectivity between activated (tumour) and quiescent (normal) endothelial cells (in words)” value [1] does the source give for `COc1ccc(/C=C\c2cc(OC)c(OC)c(OC)c2)cc1O` [Combretastatin A4, reference compound] here?
A: The value was “equally potent against quiescent and activated endothelial cells”.

Q: With `CO[C@H]1C[C@@H]2CC[C@@H](C)[C@@](O)(O2)C(=O)C(=O)N2CCCC[C@H]2C(=O)O[C@H]([C@H](C)C[C@@H]2CC[C@@H](OCCO)[C@H](OC)C2)CC(=O)[C@H](C)/C=C(\C)[C@@H](O)[C@@H](OC)C(=O)[C@H](C)C[C@H](C)/C=C/C=C/C=C/1C` [everolimus] as the compound, how does the “patients free of disease progression at 6 months” value [2] read?
A: Its value is 20 patients.

Q: For `COc1cc(C(=O)c2c(C)oc3c(OP(=O)([O-])[O-])c(OC)ccc23)cc(OC)c1OC.[Na+].[Na+]` [BNC105P, disodium [6-methoxy-2-methyl-3-(3,4,5-trimethoxybenzoyl)-1-benzofuran-7-yl] phosphate], which maximum tolerated dose [3] is on record?
A: Its maximum tolerated dose is 16 mg/m^2.
